This is an account of results in ChEMBL document CHEMBL5291721, “A preclinical secondary pharmacology resource illuminates target-adverse drug reaction associations of marketed drugs” (Nat Commun, 2023).

For one assay, the target named is T1, Adenosine receptor A3 (Homo sapiens, UniProt P0DMS8).
T1 sequence (P0DMS8 whole entry): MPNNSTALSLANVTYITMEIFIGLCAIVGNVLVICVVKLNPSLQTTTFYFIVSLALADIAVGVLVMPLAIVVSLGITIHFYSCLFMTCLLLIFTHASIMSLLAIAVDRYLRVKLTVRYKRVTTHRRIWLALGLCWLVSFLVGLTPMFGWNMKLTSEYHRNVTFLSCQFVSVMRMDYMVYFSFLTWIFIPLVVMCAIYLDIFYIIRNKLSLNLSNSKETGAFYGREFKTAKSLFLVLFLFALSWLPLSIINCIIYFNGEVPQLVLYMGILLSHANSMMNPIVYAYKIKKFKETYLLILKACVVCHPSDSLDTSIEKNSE

The target in assay [1] is T2, Cholecystokinin receptor type A (Homo sapiens, UniProt P32238).
T2 sequence (P32238 whole entry): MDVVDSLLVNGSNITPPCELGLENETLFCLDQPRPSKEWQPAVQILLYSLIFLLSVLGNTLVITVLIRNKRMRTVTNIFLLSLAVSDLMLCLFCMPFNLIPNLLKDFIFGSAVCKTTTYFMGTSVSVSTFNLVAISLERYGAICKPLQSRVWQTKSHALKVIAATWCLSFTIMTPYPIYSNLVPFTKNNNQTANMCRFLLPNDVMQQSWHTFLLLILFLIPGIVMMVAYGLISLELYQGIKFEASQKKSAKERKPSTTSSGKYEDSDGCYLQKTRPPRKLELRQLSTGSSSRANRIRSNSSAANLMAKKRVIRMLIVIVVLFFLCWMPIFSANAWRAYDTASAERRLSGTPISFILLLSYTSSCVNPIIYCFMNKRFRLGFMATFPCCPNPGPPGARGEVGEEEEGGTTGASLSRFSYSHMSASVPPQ

The target of assay [2] is Muscarinic acetylcholine receptor M3 (Homo sapiens, UniProt P20309).
A further assay concerns the target T3, Estrogen receptor (Homo sapiens, UniProt P03372).
T3 sequence (P03372 whole entry): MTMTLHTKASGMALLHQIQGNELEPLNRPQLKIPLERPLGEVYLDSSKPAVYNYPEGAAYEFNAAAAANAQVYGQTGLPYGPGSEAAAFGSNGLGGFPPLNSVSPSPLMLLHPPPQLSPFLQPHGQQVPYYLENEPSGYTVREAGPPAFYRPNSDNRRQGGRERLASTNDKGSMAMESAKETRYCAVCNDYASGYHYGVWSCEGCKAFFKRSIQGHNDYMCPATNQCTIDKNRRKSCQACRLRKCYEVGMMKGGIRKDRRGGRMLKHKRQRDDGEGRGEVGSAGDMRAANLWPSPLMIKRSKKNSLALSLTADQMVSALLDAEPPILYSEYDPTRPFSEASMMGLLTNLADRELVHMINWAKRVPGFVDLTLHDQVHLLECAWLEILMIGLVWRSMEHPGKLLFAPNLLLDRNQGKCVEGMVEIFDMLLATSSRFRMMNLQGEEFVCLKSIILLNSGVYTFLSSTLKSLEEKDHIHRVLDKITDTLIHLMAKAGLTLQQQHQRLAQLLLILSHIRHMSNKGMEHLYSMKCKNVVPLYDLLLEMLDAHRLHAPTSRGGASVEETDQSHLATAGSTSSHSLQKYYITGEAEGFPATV

In the next assay the target is Histamine H2 receptor (Homo sapiens, UniProt P25021). In kind it is functional, cell-based.
Assay [3] deals with Delta-type opioid receptor (Homo sapiens, UniProt P41143).
Assay [4] deals with Kappa-type opioid receptor (Homo sapiens, UniProt P41145).
The next assay has as its target T4, Progesterone receptor (Homo sapiens, UniProt P06401).
T4 sequence (P06401 whole entry): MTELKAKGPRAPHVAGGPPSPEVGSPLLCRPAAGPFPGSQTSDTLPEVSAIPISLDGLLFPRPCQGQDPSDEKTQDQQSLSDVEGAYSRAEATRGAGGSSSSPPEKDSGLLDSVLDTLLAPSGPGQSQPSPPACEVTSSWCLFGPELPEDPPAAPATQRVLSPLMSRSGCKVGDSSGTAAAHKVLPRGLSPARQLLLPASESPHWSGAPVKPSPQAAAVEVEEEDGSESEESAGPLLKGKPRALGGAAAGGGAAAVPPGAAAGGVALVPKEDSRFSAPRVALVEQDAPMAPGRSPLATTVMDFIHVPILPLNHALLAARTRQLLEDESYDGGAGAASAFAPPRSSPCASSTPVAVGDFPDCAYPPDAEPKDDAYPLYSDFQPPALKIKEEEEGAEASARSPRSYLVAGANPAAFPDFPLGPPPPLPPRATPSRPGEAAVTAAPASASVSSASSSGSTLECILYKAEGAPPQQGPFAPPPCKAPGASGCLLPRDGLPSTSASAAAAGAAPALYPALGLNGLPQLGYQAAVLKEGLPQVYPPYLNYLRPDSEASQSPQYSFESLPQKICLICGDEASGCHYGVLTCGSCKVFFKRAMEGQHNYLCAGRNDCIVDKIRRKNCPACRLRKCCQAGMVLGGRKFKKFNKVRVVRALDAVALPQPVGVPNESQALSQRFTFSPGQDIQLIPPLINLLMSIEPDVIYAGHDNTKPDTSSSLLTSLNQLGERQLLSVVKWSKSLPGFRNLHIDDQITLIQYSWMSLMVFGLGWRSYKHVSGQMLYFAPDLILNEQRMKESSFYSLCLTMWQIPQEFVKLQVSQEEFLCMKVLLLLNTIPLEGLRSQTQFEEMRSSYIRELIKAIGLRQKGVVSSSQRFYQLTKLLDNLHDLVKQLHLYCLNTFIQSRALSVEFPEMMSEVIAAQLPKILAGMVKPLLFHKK
In kind it is functional.

Assay [5] has as its target Sodium-dependent serotonin transporter (Homo sapiens, UniProt P31645).
Another assay addresses Histamine H3 receptor (Homo sapiens, UniProt Q9Y5N1).
Also: assay procedure not described here.

Chain of Muscarinic acetylcholine receptor M3 (P20309 whole entry): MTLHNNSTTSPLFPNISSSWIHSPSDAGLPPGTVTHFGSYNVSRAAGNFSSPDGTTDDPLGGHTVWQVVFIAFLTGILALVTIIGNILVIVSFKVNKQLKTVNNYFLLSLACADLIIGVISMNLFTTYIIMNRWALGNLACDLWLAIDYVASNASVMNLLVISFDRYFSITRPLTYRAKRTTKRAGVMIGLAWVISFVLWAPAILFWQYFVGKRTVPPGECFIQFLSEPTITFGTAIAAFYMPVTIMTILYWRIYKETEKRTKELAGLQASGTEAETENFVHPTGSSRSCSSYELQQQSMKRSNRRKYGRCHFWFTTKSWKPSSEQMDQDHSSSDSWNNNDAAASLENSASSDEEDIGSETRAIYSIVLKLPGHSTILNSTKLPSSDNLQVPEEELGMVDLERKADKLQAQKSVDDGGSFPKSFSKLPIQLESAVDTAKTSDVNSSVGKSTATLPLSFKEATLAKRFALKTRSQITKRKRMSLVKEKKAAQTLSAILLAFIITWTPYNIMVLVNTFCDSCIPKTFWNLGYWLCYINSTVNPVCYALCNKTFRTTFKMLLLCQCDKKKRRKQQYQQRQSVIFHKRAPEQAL
Chain of Histamine H2 receptor (P25021 whole entry): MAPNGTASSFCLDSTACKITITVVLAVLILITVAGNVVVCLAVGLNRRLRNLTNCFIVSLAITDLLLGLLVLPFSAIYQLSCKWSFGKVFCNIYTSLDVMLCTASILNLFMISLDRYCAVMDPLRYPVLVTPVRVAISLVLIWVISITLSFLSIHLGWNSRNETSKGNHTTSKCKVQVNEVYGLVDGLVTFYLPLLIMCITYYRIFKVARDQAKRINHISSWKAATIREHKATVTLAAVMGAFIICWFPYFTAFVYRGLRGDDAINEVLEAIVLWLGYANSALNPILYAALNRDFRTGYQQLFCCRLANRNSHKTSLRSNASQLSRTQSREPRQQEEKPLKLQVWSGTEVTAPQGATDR
Chain of Histamine H3 receptor (Q9Y5N1 whole entry): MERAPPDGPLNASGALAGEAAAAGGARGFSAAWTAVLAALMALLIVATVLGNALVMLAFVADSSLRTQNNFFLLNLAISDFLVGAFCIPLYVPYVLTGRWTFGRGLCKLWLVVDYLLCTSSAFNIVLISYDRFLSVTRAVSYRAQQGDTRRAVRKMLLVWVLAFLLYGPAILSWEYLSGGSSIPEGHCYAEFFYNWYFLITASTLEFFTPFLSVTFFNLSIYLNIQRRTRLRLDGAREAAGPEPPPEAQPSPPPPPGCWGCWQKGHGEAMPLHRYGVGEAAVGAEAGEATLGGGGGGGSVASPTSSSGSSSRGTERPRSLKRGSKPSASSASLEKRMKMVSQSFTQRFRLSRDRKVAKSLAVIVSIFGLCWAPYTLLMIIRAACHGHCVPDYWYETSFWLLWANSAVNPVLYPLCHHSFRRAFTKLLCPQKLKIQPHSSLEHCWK
Chain of Delta-type opioid receptor (P41143 whole entry): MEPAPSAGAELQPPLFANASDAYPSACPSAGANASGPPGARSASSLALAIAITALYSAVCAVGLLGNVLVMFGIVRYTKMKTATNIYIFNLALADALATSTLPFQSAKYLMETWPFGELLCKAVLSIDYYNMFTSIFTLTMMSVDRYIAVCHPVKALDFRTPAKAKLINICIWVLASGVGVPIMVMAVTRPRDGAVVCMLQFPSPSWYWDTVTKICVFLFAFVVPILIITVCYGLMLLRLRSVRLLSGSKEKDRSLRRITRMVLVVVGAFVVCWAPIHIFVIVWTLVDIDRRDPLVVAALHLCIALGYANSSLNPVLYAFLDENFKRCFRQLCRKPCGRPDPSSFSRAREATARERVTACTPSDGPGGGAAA
Chain of Kappa-type opioid receptor (P41145 whole entry): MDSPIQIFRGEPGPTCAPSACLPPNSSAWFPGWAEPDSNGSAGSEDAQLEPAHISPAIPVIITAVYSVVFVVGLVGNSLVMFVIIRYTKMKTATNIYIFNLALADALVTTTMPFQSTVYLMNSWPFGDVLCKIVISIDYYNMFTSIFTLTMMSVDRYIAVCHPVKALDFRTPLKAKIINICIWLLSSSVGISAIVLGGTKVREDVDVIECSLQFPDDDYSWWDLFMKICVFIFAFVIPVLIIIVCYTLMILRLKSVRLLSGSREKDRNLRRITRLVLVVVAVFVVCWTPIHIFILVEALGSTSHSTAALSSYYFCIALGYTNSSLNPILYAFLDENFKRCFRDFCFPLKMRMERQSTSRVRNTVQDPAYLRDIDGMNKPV
Chain of Sodium-dependent serotonin transporter (P31645 whole entry): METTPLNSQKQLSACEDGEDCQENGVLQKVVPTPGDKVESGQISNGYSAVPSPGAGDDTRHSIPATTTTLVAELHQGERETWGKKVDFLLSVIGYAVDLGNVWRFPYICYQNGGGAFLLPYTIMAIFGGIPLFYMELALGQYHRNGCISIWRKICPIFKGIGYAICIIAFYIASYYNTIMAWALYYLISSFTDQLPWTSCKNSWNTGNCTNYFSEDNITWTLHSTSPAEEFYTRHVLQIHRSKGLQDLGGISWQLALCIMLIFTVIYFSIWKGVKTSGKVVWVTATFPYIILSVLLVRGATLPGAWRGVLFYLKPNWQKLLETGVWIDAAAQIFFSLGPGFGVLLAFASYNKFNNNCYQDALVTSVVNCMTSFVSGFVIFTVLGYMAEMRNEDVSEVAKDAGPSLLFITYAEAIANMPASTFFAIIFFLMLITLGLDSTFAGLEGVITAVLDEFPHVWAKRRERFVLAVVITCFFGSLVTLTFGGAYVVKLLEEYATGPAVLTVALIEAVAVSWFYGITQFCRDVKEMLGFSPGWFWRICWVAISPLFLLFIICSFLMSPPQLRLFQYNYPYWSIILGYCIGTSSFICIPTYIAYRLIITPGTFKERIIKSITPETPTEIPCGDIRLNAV

Take `CCC1(CC)C(=O)NC(=O)N(C)C1=O` [METHARBITAL]: the AC50 at Adenosine receptor A3 is > 10 µM; in [1] it was > 10 µM; in assay [2], > 30 µM; at Estrogen receptor, > 10 µM; on Histamine H2 receptor it was > 10 µM; in assay [3], > 30 µM. In addition, the AC50 (in assay [4]; on Progesterone receptor; in [5]; on Histamine H3 receptor) was > 10 µM each time.

For the compound `O=C(C[S+]([O-])Cc1ccco1)NC/C=C\COc1cc(CN2CCCCC2)ccn1` (stereo not given) [LAFUTIDINE], the AC50 on Adenosine receptor A3 was > 10 µM; in assay [1], > 10 µM; in assay [2] it was > 30 µM; at Estrogen receptor, > 10 µM; on Histamine H2 receptor it was > 10 µM; in [3] it was > 30 µM. Moreover, the AC50 (in assay [4]; on Progesterone receptor; in assay [5]; on Histamine H3 receptor) was > 10 µM each time.

As to `COc1ccc(C(Cl)=C(c2ccc(OC)cc2)c2ccc(OC)cc2)cc1` [CHLOROTRIANISENE], the AC50 is 28 µM at Adenosine receptor A3; > 30 µM in assay [1]; > 30 µM in [2]; 0.817 µM on Estrogen receptor; > 30 µM at Histamine H2 receptor; > 30 µM in assay [3]. The AC50 (in [4]; at Progesterone receptor; in [5]; on Histamine H3 receptor) was > 30 µM in each case.

For `CCCCCCCC(=O)CC[C@@H]1[C@@H](C/C=C\CCCC(=O)O)[C@@H](O)C[C@H]1O` [UNOPROSTONE], the AC50 (on Adenosine receptor A3; in [1]; in assay [2]; at Estrogen receptor; on Histamine H2 receptor; in assay [3]) was > 30 µM throughout. Besides, the AC50 (in [4]; at Progesterone receptor; in assay [5]; on Histamine H3 receptor) was > 30 µM throughout.

For the compound `Nc1nc(Cl)nc2c1ncn2[C@@H]1O[C@H](CO)[C@@H](O)[C@@H]1F` [CLOFARABINE], the AC50 at Adenosine receptor A3 is 18.2 µM; in assay [1], > 30 µM; in assay [2], > 30 µM; on Estrogen receptor, > 30 µM; at Histamine H2 receptor, > 30 µM; in [3], > 30 µM. In addition, the concentration at half-maximal activity (AC50) is > 10 µM in [4], > 30 µM at Progesterone receptor, > 30 µM in [5] and > 30 µM on Histamine H3 receptor.

Turning to `CCC(=O)O[C@H](CC(=O)O)C[N+](C)(C)C` [LEVOCARNITINE PROPIONATE], the AC50 (at Adenosine receptor A3; in assay [1]; in assay [2]; at Estrogen receptor; at Histamine H2 receptor; in [3]) was > 30 µM throughout. Also, the AC50 (in assay [4]; on Progesterone receptor; in [5]; at Histamine H3 receptor) was > 30 µM each time.

Consider `O=C(O)c1ccc2nc(-c3cc(Cl)cc(Cl)c3)oc2c1`, for which the half-maximal activity concentration (AC50) was > 30 µM on Adenosine receptor A3; > 30 µM in [1]; > 30 µM in [2]; > 30 µM on Estrogen receptor; > 30 µM on Histamine H2 receptor; 30 µM in assay [3]. Further, the AC50 (in assay [4]; at Progesterone receptor; in assay [5]; at Histamine H3 receptor) was > 30 µM each time.

`CC(C(=O)O)c1ccc(C(=O)c2ccccc2)s1` (stereo not given) [TIAPROFENIC ACID]: the AC50 is > 10 µM on Adenosine receptor A3; > 10 µM in assay [1]; > 30 µM in assay [2]; > 10 µM on Estrogen receptor; > 10 µM at Histamine H2 receptor; > 30 µM in [3]. Also, the AC50 (in assay [4]; on Progesterone receptor; in assay [5]; at Histamine H3 receptor) was > 10 µM in each case.

Take `CO/N=C(\C(=O)N[C@@H]1C(=O)N2C(C(=O)O)=C(CSc3nc(C)c(CC(=O)O)s3)CS[C@H]12)c1csc(N)n1` [CEFODIZIME]: the AC50 (on Adenosine receptor A3; in [1]; in assay [2]; at Estrogen receptor; at Histamine H2 receptor; in assay [3]) was > 30 µM in each case. Besides, the AC50 (in assay [4]; at Progesterone receptor; in assay [5]; on Histamine H3 receptor) was > 30 µM each time.

As for `OCC(CO)N[C@H]1C[C@](O)(CO)[C@@H](O)[C@H](O)[C@H]1O` [VOGLIBOSE], the AC50 (at Adenosine receptor A3; in assay [1]; in assay [2]; at Estrogen receptor; on Histamine H2 receptor; in assay [3]) was > 30 µM in each case. Further, the AC50 (in assay [4]; at Progesterone receptor; in assay [5]; on Histamine H3 receptor) was > 30 µM throughout.

Regarding `CN(C)CCOCC(=O)NC12CC3CC(CC(C3)C1)C2` [TROMANTADINE], the AC50 (at Adenosine receptor A3; in assay [1]; in [2]; on Estrogen receptor; on Histamine H2 receptor; in assay [3]) was > 30 µM each time. In addition, the AC50 was 11 µM in assay [4], > 30 µM on Progesterone receptor, > 30 µM in assay [5] and > 30 µM on Histamine H3 receptor.

Turning to `C[C@@H](Cc1ccccc1)N(C)Cc1ccccc1` [BENZPHETAMINE], the AC50 was > 10 µM at Adenosine receptor A3; > 10 µM in assay [1]; > 30 µM in [2]; > 10 µM on Estrogen receptor; > 10 µM on Histamine H2 receptor; > 30 µM in assay [3]. Moreover, the AC50 in [4] was 1.97 µM; at Progesterone receptor, > 10 µM; in [5], 0.075 µM; on Histamine H3 receptor, > 10 µM.

Consider `CC1=C(C(=O)O)N2C(=O)[C@@H](NC(=O)[C@H](N)C3=CCC=CC3)[C@H]2SC1` [CEPHRADINE], for which the AC50 was 27 µM on Adenosine receptor A3; > 30 µM in assay [1]; > 30 µM in [2]; > 30 µM at Estrogen receptor; > 30 µM on Histamine H2 receptor; > 30 µM in assay [3]. Further, the AC50 (in assay [4]; on Progesterone receptor; in assay [5]; at Histamine H3 receptor) was > 30 µM each time.
